Data on 18 compounds can be found in patent publication US20250115600A1, “COVALENT MODIFIERS OF AKT1 AND USES THEREOF” (Terremoto Biosciences, Inc., priority 2022, published 2025).

Molecules are shown by their SMILES. A value given as a limit tells only on which side of the number the result lay.

What all share (assay): Live cell target engagement (NanoBRET) in HEK293 cells
What all share (assay type): cell-based

One experiment concerns the target AKT1 E17K (Homo sapiens (Human), UniProt P31749, E17K). Particulars: for IC50: HEK293, 2 hours at 37° C.
For a further experiment, the target named is AKT1 WT (Homo sapiens (Human), UniProt P31749). Particulars: HEK293, 2 hours at 37° C.
The target in the next experiment is AKT2 (Homo sapiens (Human), UniProt P31751). Particulars: HEK293, 2 hours at 37° C.
AKT2, sequence (P31751 whole entry): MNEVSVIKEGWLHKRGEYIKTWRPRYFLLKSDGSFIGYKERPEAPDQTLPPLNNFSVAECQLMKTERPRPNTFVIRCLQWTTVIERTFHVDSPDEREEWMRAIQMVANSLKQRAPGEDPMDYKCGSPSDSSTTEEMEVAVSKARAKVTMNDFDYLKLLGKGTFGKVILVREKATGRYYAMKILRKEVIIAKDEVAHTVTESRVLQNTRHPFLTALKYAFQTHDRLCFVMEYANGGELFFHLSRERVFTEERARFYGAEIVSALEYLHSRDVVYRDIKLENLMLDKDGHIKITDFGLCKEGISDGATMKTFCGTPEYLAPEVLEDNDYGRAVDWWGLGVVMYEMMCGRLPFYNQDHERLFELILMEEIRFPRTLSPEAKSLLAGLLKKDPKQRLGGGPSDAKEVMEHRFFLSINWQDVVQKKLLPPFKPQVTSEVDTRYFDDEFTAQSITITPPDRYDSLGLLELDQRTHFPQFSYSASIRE

AKT1 WT, sequence (P31749 whole entry): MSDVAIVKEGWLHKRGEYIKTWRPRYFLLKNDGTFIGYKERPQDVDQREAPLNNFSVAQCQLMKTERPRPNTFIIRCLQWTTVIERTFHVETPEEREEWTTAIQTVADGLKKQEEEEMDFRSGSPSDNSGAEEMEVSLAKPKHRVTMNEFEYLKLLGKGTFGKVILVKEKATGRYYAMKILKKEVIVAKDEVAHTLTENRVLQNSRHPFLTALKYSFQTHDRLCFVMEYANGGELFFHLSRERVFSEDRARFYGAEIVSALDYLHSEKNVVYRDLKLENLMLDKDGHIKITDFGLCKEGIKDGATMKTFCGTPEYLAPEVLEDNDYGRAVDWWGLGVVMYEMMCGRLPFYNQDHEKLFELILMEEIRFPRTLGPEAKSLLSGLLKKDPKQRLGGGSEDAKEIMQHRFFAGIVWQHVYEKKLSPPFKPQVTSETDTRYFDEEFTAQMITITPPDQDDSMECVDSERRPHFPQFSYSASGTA
AKT1 E17K, sequence (P31749 whole entry E17K): as the sequence (P31749 whole entry) above, with E17K counted along it

One may read the IC50 as the concentration needed to halve the response being measured. Lower therefore signals inhibition by little substance. In the case of `CN(C(=O)CCc1ccc(C=O)c(O)c1)c1ccc(-n2c(-c3cccnc3N)nc3ccc(-c4ccccc4)nc32)cc1` [Compound 100, N-(4-(2-(2-aminopyridin-3-yl)-5-phenyl-3H-imidazo[4,5-b]pyridin-3-yl)phenyl)-3-(4-formyl-3-hydroxyphenyl)-N-methylpropanamide], at AKT1 E17K, the “AKT1 E17K IC50: Selectivity vs AKT1 WT” value came to 1.9, the “AKT1 E17K IC50: Selectivity vs AKT2” value is reported as 13 and the IC50 fell in the range of 100 to 500 nM. The IC50 against AKT1 WT fell in the range of 100 to 500 nM. The compound also gave an IC50 against AKT2 above 500 nM.

With `CS(=O)(=O)Nc1cccc(-c2ccc3nc(-c4cccnc4N)n(-c4ccc(CNCCc5ccc(C=O)c(O)c5)cc4)c3n2)c1` [Compound 101, N-{3-[2-(2-aminopyridin-3-yl)-3-[4-({[2-(4-formyl-3-hydroxyphenyl)ethyl]amino}methyl)phenyl]imidazo[4,5-b]pyridin-5-yl]phenyl}methanesulfonamide], at AKT1 E17K, the “AKT1 E17K IC50: Selectivity vs AKT1 WT” value was 1.8, the “AKT1 E17K IC50: Selectivity vs AKT2” value was found to be 5.9 and the IC50 is below 100 nM. For the same compound, the IC50 against AKT1 WT is below 100 nM. Besides, at AKT2, the half-inhibitory concentration (IC50) lay within 100 to 500 nM.

In the case of `CC(=O)Nc1cccc(-c2ccc3nc(-c4cccnc4N)n(-c4ccc(CNCCc5ccc(C=O)c(O)c5F)cc4)c3n2)c1` [Compound 102, N-{3-[2-(2-aminopyridin-3-yl)-3-[4-({[2-(2-fluoro-4-formyl-3-hydroxyphenyl)ethyl]amino}methyl)phenyl]imidazo[4,5-b]pyridin-5-yl]phenyl}acetamide], on AKT1 E17K, the “AKT1 E17K IC50: Selectivity vs AKT1 WT” value stood at 1.1, the “AKT1 E17K IC50: Selectivity vs AKT2” value is reported as 2 and the IC50 is 100 to 500 nM. The IC50 against AKT1 WT is 100 to 500 nM. In addition, at AKT2, the IC50 was above 500 nM.

Regarding `Nc1ncccc1-c1nc2ccc(-c3ccccn3)nc2n1-c1ccc(CNCCc2ccc(C=O)c(O)c2)cc1` [Compound 103, 4-{2-[({4-[2-(2-aminopyridin-3-yl)-5-(pyridin-2-yl)imidazo[4,5-b]pyridin-3-yl]phenyl}methyl)amino]ethyl}-2-hydroxybenzaldehyde], the “AKT1 E17K IC50: Selectivity vs AKT1 WT” value on AKT1 E17K is 2.5. Moreover, the “AKT1 E17K IC50: Selectivity vs AKT2” value at AKT1 E17K came to 11. Also, the half-maximal inhibitory concentration (IC50) against AKT1 E17K was below 100 nM; on AKT1 WT, below 100 nM; against AKT2 it was 100 to 500 nM.

Turning to `Nc1ncccc1-c1nc2ccc(-c3ccccc3)nc2n1-c1ccc(C(=O)NCC#Cc2ccc(C=O)c(O)c2)cc1` [Compound 104, 4-(2-(2-aminopyridin-3-yl)-5-phenyl-3H-imidazo[4,5-b]pyridin-3-yl)-N-(3-(4-formyl-3-hydroxyphenyl)prop-2-yn-1-yl)benzamide], at AKT1 E17K, the “AKT1 E17K IC50: Selectivity vs AKT1 WT” value is 0.72, the “AKT1 E17K IC50: Selectivity vs AKT2” value is on record as 1 and the IC50 is above 500 nM. This compound also showed an IC50 on AKT1 WT above 500 nM. The same compound had an IC50 at AKT2 above 500 nM.

Take `C[C@@H](NCCc1ccc(O)c(C=O)c1)c1ccc(-n2c(-c3cccnc3N)nc3ccc(-c4ccccc4)nc32)cc1` [Compound 105, (R)-5-(2-((1-(4-(2-(2-aminopyridin-3-yl)-5-phenyl-3H-imidazo[4,5-b]pyridin-3-yl)phenyl)ethyl)amino)ethyl)-2-hydroxybenzaldehyde]: at AKT1 E17K, the “AKT1 E17K IC50: Selectivity vs AKT1 WT” value was determined as 1, the “AKT1 E17K IC50: Selectivity vs AKT2” value is above 1.0 and the IC50 is above 500 nM. This compound displayed an IC50 against AKT1 WT above 500 nM. In addition, the half-maximal inhibitory concentration (IC50) against AKT2 was above 500 nM.

Regarding `Nc1ncccc1-c1nc2ccc(-c3ccccc3)nc2n1-c1ccc(S(=O)(=O)NCCc2ccc(C=O)c(O)c2)cc1` [Compound 106, 4-[2-(2-aminopyridin-3-yl)-5-phenylimidazo[4,5-b]pyridin-3-yl]-N-[2-(4-formyl-3-hydroxyphenyl)ethyl]benzenesulfonamide], at AKT1 E17K, the “AKT1 E17K IC50: Selectivity vs AKT1 WT” value turned out to be 0.85, the “AKT1 E17K IC50: Selectivity vs AKT2” value was found to be 0.91 and the IC50 was above 500 nM. Also, on AKT1 WT, the IC50 was above 500 nM. This compound also came in with a half-inhibitory concentration (IC50) at AKT2 above 500 nM.

On to `Nc1ncccc1-c1nc2ccc(-c3cccc(N4CCOCC4)c3)nc2n1-c1ccc(CNCCc2ccc(C=O)c(O)c2)cc1` [Compound 108, 4-(2-((4-(2-(2-aminopyridin-3-yl)-5-(3-morpholinophenyl)-3H-imidazo[4,5-b]pyridin-3-yl)benzyl)amino)ethyl)-2-hydroxybenzaldehyde], for which, on AKT1 E17K, the “AKT1 E17K IC50: Selectivity vs AKT1 WT” value is recorded as 1.2, the “AKT1 E17K IC50: Selectivity vs AKT2” value is 2.1 and the IC50 was below 100 nM. The IC50 at AKT1 WT is below 100 nM. In addition, at AKT2, the IC50 was below 100 nM.

`CC(=O)N(C)C1CCN(c2cccc(-c3ccc4nc(-c5cccnc5N)n(-c5ccc(CNCCc6ccc(C=O)c(O)c6)cc5)c4n3)c2)CC1` [Compound 109, N-(1-{3-[2-(2-aminopyridin-3-yl)-3-[4-({[2-(4-formyl-3-hydroxyphenyl)ethyl]amino}methyl)phenyl]imidazo[4,5-b]pyridin-5-yl]phenyl}piperidin-4-yl)-N-methylacetamide]: at AKT1 E17K, the “AKT1 E17K IC50: Selectivity vs AKT1 WT” value is reported as 0.63, the “AKT1 E17K IC50: Selectivity vs AKT2” value was 0.6 and the IC50 is below 100 nM. The IC50 on AKT1 WT was below 100 nM. This compound also registered an IC50 against AKT2 below 100 nM.

For `Nc1ncccc1-c1nc2ccc(-c3ccccc3)nc2n1-c1ccc(CCNC(=O)c2ccc(C=O)c(O)c2)cc1` [Compound 111, N-(2-{4-[2-(2-aminopyridin-3-yl)-5-phenylimidazo[4,5-b]pyridin-3-yl]phenyl}ethyl)-4-formyl-3-hydroxybenzamide], on AKT1 E17K, the “AKT1 E17K IC50: Selectivity vs AKT1 WT” value is 0.83, the “AKT1 E17K IC50: Selectivity vs AKT2” value amounted to 6.3 and the IC50 is below 100 nM. This compound also registered an IC50 against AKT1 WT below 100 nM. This compound also registered an IC50 against AKT2 of 100 to 500 nM.

Consider `Nc1ncccc1-c1nc2ccc(-c3ccccc3)nc2n1-c1ccc(C(=O)NCCc2ccc(C=O)c(O)c2)cn1` [Compound 112, 6-[2-(2-aminopyridin-3-yl)-5-phenylimidazo[4,5-b]pyridin-3-yl]-N-[2-(4-formyl-3-hydroxyphenyl)ethyl]pyridine-3-carboxamide], for which, on AKT1 E17K, the “AKT1 E17K IC50: Selectivity vs AKT1 WT” value turned out to be 1, the “AKT1 E17K IC50: Selectivity vs AKT2” value is 1 and the IC50 was above 500 nM. Besides, the IC50 on AKT1 WT was above 500 nM. Also, at AKT2, the IC50 was above 500 nM.

Consider `Nc1ncccc1-c1nc2ccc(-c3cccnc3)nc2n1-c1ccc(CNCCc2ccc(C=O)c(O)c2)cc1` [Compound 113, 4-(2-((4-(2-(2-aminopyridin-3-yl)-5-(pyridin-3-yl)-3H-imidazo[4,5-b]pyridin-3-yl)benzyl)amino)ethyl)-2-hydroxybenzaldehyde], for which, on AKT1 E17K, the “AKT1 E17K IC50: Selectivity vs AKT1 WT” value came out at 2.5, the “AKT1 E17K IC50: Selectivity vs AKT2” value is reported as 57 and the IC50 is below 100 nM. In addition, the IC50 at AKT1 WT was 100 to 500 nM. The same compound returned an IC50 at AKT2 above 500 nM.

As for `CC(NC(=O)Cc1ccc(O)c(C=O)c1)c1ccc(-n2c(-c3cccnc3N)nc3ccc(-c4ccccc4)nc32)cc1` (stereo not drawn) [Compound 115, N-(1-(4-(2-(2-aminopyridin-3-yl)-5-phenyl-3H-imidazo[4,5-b]pyridin-3-yl)phenyl)ethyl)-2-(3-formyl-4-hydroxyphenyl)acetamide], at AKT1 E17K, the “AKT1 E17K IC50: Selectivity vs AKT1 WT” value was found to be 1.2, the “AKT1 E17K IC50: Selectivity vs AKT2” value is recorded as 4.9 and the IC50 is below 100 nM. The IC50 against AKT1 WT fell in the range of 100 to 500 nM. The compound further had an IC50 at AKT2 of 100 to 500 nM.

Consider `CC(NC(=O)Cc1ccc(C=O)c(O)c1)c1ccc(-n2c(-c3cccnc3N)nc3ccc(-c4ccccc4)nc32)cc1` (stereo not drawn) [Compound 116, N-(1-{4-[2-(2-aminopyridin-3-yl)-5-phenylimidazo[4,5-b]pyridin-3-yl]phenyl}ethyl)-2-(4-formyl-3-hydroxyphenyl)acetamide], for which, at AKT1 E17K, the “AKT1 E17K IC50: Selectivity vs AKT1 WT” value amounted to 1.9, the “AKT1 E17K IC50: Selectivity vs AKT2” value turned out to be 10 and the IC50 is below 100 nM. Further, the IC50 at AKT1 WT was below 100 nM. The IC50 against AKT2 is 100 to 500 nM.

As to `Nc1ncccc1-c1nc2ccc(-c3ccccc3)nc2n1-c1ccc(NC(=O)CCc2ccc(C=O)c(O)c2)cc1` [Compound 118, N-(4-(2-(2-aminopyridin-3-yl)-5-phenyl-3H-imidazo[4,5-b]pyridin-3-yl)phenyl)-3-(4-formyl-3-hydroxyphenyl)propanamide], on AKT1 E17K, the “AKT1 E17K IC50: Selectivity vs AKT1 WT” value is reported as 1.6, the “AKT1 E17K IC50: Selectivity vs AKT2” value is 29 and the IC50 is below 100 nM. This compound registered an IC50 against AKT1 WT below 100 nM. On AKT2, the IC50 is 100 to 500 nM.

In the case of `Nc1ncccc1-c1nc2ccc(-c3ccncc3)nc2n1-c1ccc(CNCCc2ccc(C=O)c(O)c2)cc1` [Compound 119, 4-{2-[({4-[2-(2-aminopyridin-3-yl)-5-(pyridin-4-yl)imidazo[4,5-b]pyridin-3-yl]phenyl}methyl)amino]ethyl}-2-hydroxybenzaldehyde], on AKT1 E17K, the “AKT1 E17K IC50: Selectivity vs AKT1 WT” value came to 2.9, the “AKT1 E17K IC50: Selectivity vs AKT2” value is 18 and the IC50 was below 100 nM. The IC50 at AKT1 WT was 100 to 500 nM. The compound further came in with a half-inhibitory concentration (IC50) against AKT2 above 500 nM.

As for `Nc1ncccc1-c1nc2ccc(-c3ccccc3)nc2n1-c1ccc(CNCCc2ccc(C=O)c(O)c2Cl)cc1` [Compound 120, 4-{2-[({4-[2-(2-aminopyridin-3-yl)-5-phenylimidazo[4,5-b]pyridin-3-yl]phenyl}methyl)amino]ethyl}-3-chloro-2-hydroxybenzaldehyde], at AKT1 E17K, the “AKT1 E17K IC50: Selectivity vs AKT1 WT” value worked out at 0.86, the “AKT1 E17K IC50: Selectivity vs AKT2” value worked out at 2.3 and the IC50 was below 100 nM. Also, on AKT1 WT, the IC50 is below 100 nM. The IC50 on AKT2 is 100 to 500 nM.

On to `CC(=O)Nc1cccc(-c2ccc3nc(-c4cccnc4N)n(-c4ccc(CNCCc5ccc(C=O)c(O)c5)cc4)c3n2)c1` [Compound 121, N-{3-[2-(2-aminopyridin-3-yl)-3-[4-({[2-(4-formyl-3-hydroxyphenyl)ethyl]amino}methyl)phenyl]imidazo[4,5-b]pyridin-5-yl]phenyl}acetamide], for which, at AKT1 E17K, the “AKT1 E17K IC50: Selectivity vs AKT1 WT” value was found to be 2, the “AKT1 E17K IC50: Selectivity vs AKT2” value was found to be 6.2 and the IC50 is below 100 nM. For the same compound, the IC50 on AKT1 WT was below 100 nM. The compound further yielded an IC50 against AKT2 of 100 to 500 nM.
